Test results reported in patent US9234000B2, “Benzylamine derivatives as inhibitors of plasma kallikrein” (KalVista Pharmaceuticals Limited, priority 2011, dated 2016).
pIC50: −log10 of the molar value. Values after ≈ are worked out from the molar mass of the structure shown. Read-outs that look alike come from different tables or passages of the source.

Assays:
[1] = Determination of thermodynamic solubility in phosphate buffer; assay type: physicochemical; conditions: pH 7.4, aqueous buffer, thermodynamic from solid, ammonium phosphate buffer pH7.4, 290 mOsm, 37° C., nominal 1 mg/mL, read-out: Solubility in PO4 buffer
Experimental: Determination of Thermodynamic Solubility in Phosphate Buffer
The thermodynamic solubility of compound was determined in Ammonium Phosphate Buffer (pH7.4, 290 mOsm). Compounds were made up at a nominal concentration of 1 mg/mL, vortexed then placed on a shaker for 1 h, 37° C. at approximately 950 rpm. Following incubation samples were transferred to eppendorf tubes and centrifuged at 15,000 g (r.c.f.) for 10 minutes at 37° C. The concentration of compound in the supernatant was determined by LC-MS/MS analysis using a calibration line prepared from a DMSO stock.

Human KLK1 = Human KLK1 (Homo sapiens (Human), UniProt P06870); assay: Determination of the IC50 for KLK1; assay type: biochemical; conditions: Human KLK1, 37° C., substrate H-DVal-Leu-Arg-AFC
Procedure, shortened: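 Human KLK1 incubated at 37 °C with fluorogenic substrate H-DVal-Leu-Arg-AFC and a range of test compound concentrations. Residual activity was taken as initial reaction rate from absorbance change at 410 nm, and the IC50 derived from it.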

Human plasma kallikrein = Human plasma kallikrein (Homo sapiens (Human), UniProt P03952); assay: Determination of the IC50 for plasma kallikrein; assay type: biochemical; conditions: 37° C., read-out: IC50 (human PKal)
Procedure, shortened: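 Human plasma kallikrein incubated at 37° C with fluorogenic substrate H-DPro-Phe-Arg-AFC and varying compound concentrations. Initial reaction rate followed by absorbance change at 410 nm to give residual activity and IC50.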

physchem = conditions: for solubility: pH 7, aqueous buffer, kinetic from dmso stock
Experimental: Determination of the Kinetic Solubility in Phosphate Buffer
After shaking for approximately 30 seconds the reduction in light transmission of these samples, at 650 nm, was measured (Molecular Devices Spectromax UV/visible spectrophotometer). A second measurement was taken at approximately 30 seconds later.

Factor XIIa = Factor XIIa (Homo sapiens (Human), UniProt P00748); assay: Determination of enzyme selectivity: Factor XIIa; assay type: biochemical; conditions: fluorogenic substrate at Km concentration
Experimental: Determination of Enzyme Selectivity
Human serine protease enzymes plasmin, thrombin, trypsin, Factor Xa and Factor XIIa were assayed for enzymatic activity using an appropriate fluorogenic substrate. Protease activity was measured by monitoring the accumulation of liberated fluorescence from the substrate over 5 minutes. The linear rate of fluorescence increase per minute was expressed as percentage (%) activity. The Km for the cleavage of each substrate was determined by standard transformation of the Michaelis-Menten equation.

[2] = fluorogenic substrate H-DPro-Phe-Arg-AFC

Human KLK1, sequence (P06870 25-262): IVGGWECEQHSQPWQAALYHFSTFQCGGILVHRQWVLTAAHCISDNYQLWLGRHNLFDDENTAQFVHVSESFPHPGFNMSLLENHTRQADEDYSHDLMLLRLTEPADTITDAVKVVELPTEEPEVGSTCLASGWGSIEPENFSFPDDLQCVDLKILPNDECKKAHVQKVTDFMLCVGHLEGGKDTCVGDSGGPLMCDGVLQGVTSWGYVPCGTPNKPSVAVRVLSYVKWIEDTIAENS
Human plasma kallikrein, sequence (P03952 391-638): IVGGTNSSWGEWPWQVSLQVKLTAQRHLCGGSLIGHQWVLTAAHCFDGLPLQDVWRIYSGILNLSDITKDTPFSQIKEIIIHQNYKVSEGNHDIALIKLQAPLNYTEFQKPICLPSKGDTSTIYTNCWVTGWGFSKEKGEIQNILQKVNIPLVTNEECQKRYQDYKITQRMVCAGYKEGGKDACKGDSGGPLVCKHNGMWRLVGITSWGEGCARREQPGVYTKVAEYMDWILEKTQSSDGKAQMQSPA
Human plasma kallikrein, sequence (P03952 20-390 partner): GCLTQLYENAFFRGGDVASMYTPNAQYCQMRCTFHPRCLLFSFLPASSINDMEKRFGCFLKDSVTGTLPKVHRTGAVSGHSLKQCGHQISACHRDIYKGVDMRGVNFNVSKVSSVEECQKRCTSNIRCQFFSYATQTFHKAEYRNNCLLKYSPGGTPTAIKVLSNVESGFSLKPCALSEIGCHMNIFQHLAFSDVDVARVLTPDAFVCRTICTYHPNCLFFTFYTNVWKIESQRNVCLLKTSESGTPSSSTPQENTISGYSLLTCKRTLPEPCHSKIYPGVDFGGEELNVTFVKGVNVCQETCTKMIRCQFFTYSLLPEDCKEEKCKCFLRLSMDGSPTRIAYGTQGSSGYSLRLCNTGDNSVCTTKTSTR
Factor XIIa, sequence (P00748 373-615): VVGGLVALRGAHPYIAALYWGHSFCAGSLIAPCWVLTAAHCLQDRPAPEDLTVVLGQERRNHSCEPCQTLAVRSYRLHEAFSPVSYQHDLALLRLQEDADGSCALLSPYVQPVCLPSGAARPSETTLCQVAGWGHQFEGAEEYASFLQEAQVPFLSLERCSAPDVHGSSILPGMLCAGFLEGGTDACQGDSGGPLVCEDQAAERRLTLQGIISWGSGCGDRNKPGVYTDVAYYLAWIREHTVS

SMILES	solubility at 1 h [1]	pIC50 (Human KLK1; Table 12)	pIC50 (Human plasma kallikrein; [2])	solubility in PO4 buffer (physchem; pH 7)	solubility (physchem)	pIC50 (Factor XIIa)	pIC50 (Human KLK1; Table 13)	pIC50 (Human plasma kallikrein; substrate H-DPro-Phe-Arg-AFC)
CCOc1ccc(C[C@@H](NC(=O)c2ccccc2)C(=O)N(C)[C@@H](Cc2ccccc2)C(=O)NCc2ccc(CN)cc2)cc1 [Example 38, N-[(R)-1-{[(S)-1-(4-Aminomethyl-benzylcarbamoyl)-2-phenyl-ethyl]-methyl-carbamoyl}-2-(4-ethoxy-phenyl)-ethyl]-benzamide]	14.6 µg/mL (≈ 24.5 µM)	< 5.00	7.33	> 235 µM				
CCOc1ccc(C[C@@H](NC(=O)c2cccc3ccccc23)C(=O)N[C@@H](Cc2ccccc2)C(=O)NCc2ccc(CN)cc2)cc1 [Example 54, Naphthalene-1-carboxylic acid [(R)-1-[(S)-1-(4-aminomethyl-benzylcarbamoyl)-2-phenyl-ethylcarbamoyl]-2-(4-ethoxy-phenyl)-ethyl]-amide]	0.8 µg/mL (≈ 1.27 µM)		7.08		12 µM (≈ 7.55 µg/mL)			
CCOc1ccc(C[C@@H](NC(=O)c2ccc(Cl)cc2)C(=O)N[C@@H](Cc2ccccc2)C(=O)NCc2ccc(CN)cc2)cc1 [Example 55, N-[(R)-1-[(S)-1-(4-Aminomethyl-benzylcarbamoyl)-2-phenyl-ethylcarbamoyl]-2-(4-ethoxy-phenyl)-ethyl]-4-chloro-benzamide]	1.5 µg/mL (≈ 2.45 µM)		7.51		36 µM (≈ 22.1 µg/mL)			
CCOc1ccc(C[C@@H](NC(=O)c2ccc(C(F)(F)F)cc2)C(=O)N[C@@H](Cc2ccccc2)C(=O)NCc2ccc(CN)cc2)cc1 [Example 56, N-[(R)-1-[(S)-1-(4-Aminomethyl-benzylcarbamoyl)-2-phenyl-ethylcarbamoyl]-2-(4-ethoxy-phenyl)-ethyl]-4-trifluoromethyl-benzamide]	0.9 µg/mL (≈ 1.39 µM)		6.30		36 µM (≈ 23.3 µg/mL)			
CCOc1ccc(C[C@@H](NC(=O)c2ccc(Cl)cc2Cl)C(=O)N[C@@H](Cc2ccccc2)C(=O)NCc2ccc(CN)cc2)cc1 [Example 58, N-[(R)-1-[(S)-1-(4-Aminomethyl-benzylcarbamoyl)-2-phenyl-ethylcarbamoyl]-2-(4-ethoxy-phenyl)-ethyl]-2,4-dichloro-benzamide]	4.1 µg/mL (≈ 6.33 µM)		6.77		36 µM (≈ 23.3 µg/mL)			
CCOc1ccc(C[C@@H](NC(=O)c2ccc(F)c(F)c2)C(=O)N[C@@H](Cc2ccccc2)C(=O)NCc2ccc(CN)cc2)cc1 [Example 59, N-[(R)-1-[(S)-1-(4-Aminomethyl-benzylcarbamoyl)-2-phenyl-ethylcarbamoyl]-2-(4-ethoxy-phenyl)-ethyl]-3,4-difluoro-benzamide]	7.7 µg/mL (≈ 12.5 µM)		7.11		36 µM (≈ 22.1 µg/mL)			
CCOc1ccc(C[C@@H](NC(=O)Cc2ccccc2)C(=O)N[C@@H](Cc2ccccc2)C(=O)NCc2ccc(CN)cc2)cc1 [Example 85, (S)-N-(4-Aminomethyl-benzyl)-2-[(R)-3-(4-ethoxy-phenyl)-2-phenylacetylamino-propionylamino]-3-phenyl-propionamide]						< 5.00	5.54	6.31
CCOc1ccc(C[C@@H](NC(=O)C23CC4CC(CC(C4)C2)C3)C(=O)N[C@@H](Cc2ccccc2)C(=O)NCc2ccc(CN)cc2)cc1 [Example 91, Adamantane-1-carboxylic acid [(R)-1-[(S)-1-(4-aminomethyl-benzylcarbamoyl)-2-phenyl-ethylcarbamoyl]-2-(4-ethoxy-phenyl)-ethyl]-amide]						< 5.00	< 5.00	5.68
CCOc1ccc(C[C@@H](NC(=O)c2cc(Cl)cc(Cl)c2)C(=O)N[C@@H](Cc2ccccc2)C(=O)NCc2ccc(CN)cc2)cc1 [Example 94, N-[(R)-1-[(S)-1-(4-Aminomethyl-benzylcarbamoyl)-2-phenyl-ethylcarbamoy]-2-(4-ethoxy-phenyl)-ethyl]-3,5-dichloro-benzamide]						< 5.00	< 5.00	5.97
CCOc1ccc(C[C@@H](NC(=O)/C=C/c2ccccc2)C(=O)N[C@@H](Cc2ccccc2)C(=O)NCc2ccc(CN)cc2)cc1 [Example 96, (E)-N-[(R)-1-[(S)-1-(4-Aminomethyl-benzylcarbamoyl)-2-phenyl-ethylcarbamoyl]-2-(4-ethoxy-phenyl)-ethyl]-3-phenyl-acrylamide]						< 5.00	< 5.00	6.12
CCOc1ccc(C[C@@H](NC(=O)c2ccccc2)C(=O)N[C@@H](Cc2ccccc2)C(=O)NCc2ccc(CN)c(C)c2)cc1 [Example 182, N-[(R)-1-[(S)-1-(4-Aminomethyl-3-methyl-benzylcarbamoyl)-2-phenyl-ethylcarbamoyl]-2-(4-ethoxy-phenyl)-ethyl]-benzamide]						< 5.00	< 5.00	7.82
CCOc1ccc(C[C@@H](NC(=O)c2sccc2N)C(=O)N[C@@H](Cc2cscn2)C(=O)NCc2ccc(CN)cc2)cc1 [Example 183, 3-Amino-thiophene-2-carboxylic acid [(R)-1-[(S)-1-(4-aminomethyl-benzylcarbamoyl)-2-thiazol-4-yl-ethylcarbamoyl]-2-(4-ethoxy-phenyl)-ethyl]-amide]						< 5.00	< 5.00	7.80
CCOc1ccc(C[C@@H](NC(=O)c2sccc2Cl)C(=O)N[C@@H](Cc2cscn2)C(=O)NCc2ccc(CN)cc2)cc1 [Example 184, 3-Chloro-thiophene-2-carboxylic acid [(R)-1-[(S)-1-(4-aminomethyl-benzylcarbamoyl)-2-thiazol-4-yl-ethylcarbamoyl]-2-(4-ethoxy-phenyl)-ethyl]-amide]						< 5.00	< 5.00	8.00
CCOc1ccc(C[C@@H](NC(=O)c2ccc(C)cc2)C(=O)N[C@@H](Cc2cscn2)C(=O)NCc2ccc(CN)cc2)cc1 [Example 185, N-[(R)-1-[(S)-1-(4-Aminomethyl-benzylcarbamoyl)-2-thiazol-4-yl-ethylcarbamoyl]-2-(4-ethoxy-phenyl)-ethyl]-4-methyl-benzamide]						< 5.00	< 5.00	7.31
CCOc1ccc(C[C@@H](NC(=O)c2[nH]ccc2C)C(=O)N[C@@H](Cc2csc3ccccc23)C(=O)NCc2ccc(CN)cc2)cc1 [Example 186, 3-Methyl-1H-pyrrole-2-carboxylic acid [(R)-1-[(S)-1-(4-aminomethyl-benzylcarbamoyl)-2-benzo[b]thiophen-3-yl-ethylcarbamoyl]-2-(4-ethoxy-phenyl)-ethyl]-amide]						< 5.00	5.42	7.85
CCOc1ccc(C[C@@H](NC(=O)c2sccc2N)C(=O)N[C@@H](Cc2cscn2)C(=O)NCc2ccc(CN)cc2)cc1 [Example 187, 3-Amino-thiophene-2-carboxylic acid [(R)-1-[(S)-1-(4-aminomethyl-benzylcarbamoyl)-2-thiazol-4-yl-ethylcarbamoyl]-2-(4-ethoxy-phenyl)-ethyl]-amide]						< 5.00	< 5.00	8.15
CCOc1ccc(C[C@@H](NC(=O)c2sccc2NC(C)=O)C(=O)N[C@@H](Cc2csc3ccccc23)C(=O)NCc2ccc(CN)cc2)cc1 [Example 188, 3-Acetylamino-thiophene-2-carboxylic acid [(R)-1-[(S)-1-(4-aminomethyl-benzylcarbamoyl)-2-benzo[b]thiophen-3-yl-ethylcarbamoyl]-2-(4-ethoxy-phenyl)-ethyl]-amide]						< 5.00	< 5.00	7.44
CCOc1ccc(C[C@@H](NC(=O)c2cccc(C)c2)C(=O)N[C@@H](Cc2cccnc2)C(=O)NCc2ccc(CN)cc2)cc1 [Example 189, N-[(R)-1-[(S)-1-(4-Aminomethyl-benzylcarbamoyl)-2-pyridin-3-yl-ethylcarbamoyl]-2-(4-ethoxy-phenyl)-ethyl]-3-methyl-benzamide]						< 5.00	< 5.00	7.64
CCOc1ccc(C[C@@H](NC(=O)c2ccccc2C)C(=O)N[C@@H](Cc2cccnc2)C(=O)NCc2ccc(CN)cc2)cc1 [Example 190, N-[(R)-1-[(S)-1-(4-Aminomethyl-benzylcarbamoyl)-2-pyridin-3-yl-ethylcarbamoyl]-2-(4-ethoxy-phenyl)-ethyl]-2-methyl-benzamide]						< 5.00	< 5.00	7.55
CCOc1ccc(C[C@@H](NC(=O)c2[nH]c(C)cc2C)C(=O)N[C@@H](Cc2ccccc2)C(=O)NCc2ccc(CN)cc2)cc1 [Example 191, 3,5-Dimethyl-1H-pyrrole-2-carboxylic acid [(R)-1-[(S)-1-(4-aminomethyl-benzylcarbamoyl)-2-phenyl-ethylcarbamoyl]-2-(4-ethoxy-phenyl)-ethyl]-amide]						< 5.00	< 5.00	7.70
